# A compilation of properties of binary mixtures (doi:10.1016/j.seppur.2020.117103)
# Assay: xn = mol fraction of the nth substance listed
# Conditions: 298.15 K, 100 kPa
smiles,measurement,setting,value
CCO + CC[n+]1ccn(C)c1.N#C[S-],speed of sound,x1 = 1,1142 m/s
CO + CC[n+]1ccn(C)c1.N#C[S-],speed of sound,x1 = 1,1103 m/s
CC[n+]1ccn(C)c1.N#C[S-] + CO,speed of sound,x2 = 0,1851 m/s
same,speed of sound,x2 = 0.2018,1813 m/s
same,speed of sound,x2 = 0.3185,1780 m/s
same,speed of sound,x2 = 0.4076,1750 m/s
same,speed of sound,x2 = 0.5037,1711 m/s
same,speed of sound,x2 = 0.5936,1655 m/s
same,speed of sound,x2 = 0.6923,1585 m/s
same,speed of sound,x2 = 0.805,1477 m/s
same,speed of sound,x2 = 0.9014,1328 m/s
CC[n+]1ccn(C)c1.N#C[S-] + CCO,speed of sound,x2 = 0,1851 m/s
same,speed of sound,x2 = 0.2134,1797 m/s
same,speed of sound,x2 = 0.345,1751 m/s
same,speed of sound,x2 = 0.3836,1729 m/s
same,speed of sound,x2 = 0.6181,1592 m/s
same,speed of sound,x2 = 0.6948,1524 m/s
same,speed of sound,x2 = 0.8944,1285 m/s
